According to patent US8148407B2, “Compounds derived from 5-thioxylose and their use in therapeutics” (Laboratories Fournier S.A., priority 2005, dated 2012):

SMILES	melting point [°C]
COc1c(C)cc(-c2cncc(O[C@@H]3SC[C@@H](O)[C@H](O)[C@H]3O)c2)cc1C [Example 83, 5-(3,5-dimethyl-4-methoxyphenyl)-3-pyridinyl 5-thio-β-D-xylopyranoside]	173
Cc1cc(C#N)ccc1-c1cncc(O[C@@H]2SC[C@@H](O)[C@H](O)[C@H]2O)c1 [Example 154, 5-(4-cyano-2-methylphenyl)-3-pyridinyl 5-thio-β-D-xylopyranoside]	202 to 206
O=S(=O)(c1ccccc1)c1cncc(O[C@@H]2SC[C@@H](O)[C@H](O)[C@H]2O)c1 [Example 140, 5-(phenylsulfonyl)-3-pyridinyl 5-thio-β-D-xylopyranoside]	86
CC(C)Oc1ccc(-c2cncc(O[C@@H]3SC[C@@H](O)[C@H](O)[C@H]3O)c2)cc1 [Example 69, 5-[4-(1-methylethoxy)phenyl]-3-pyridinyl 5-thio-β-D-xylopyranoside]	158
N#Cc1cc(-c2cncc(O[C@@H]3SC[C@@H](O)[C@H](O)[C@H]3O)c2)ccc1F [Example 63, 5-(3-cyano-4-fluorophenyl)-3-pyridinyl 5-thio-β-D-xylopyranoside]	197
COc1cc(F)c(-c2cncc(O[C@@H]3SC[C@@H](O)[C@H](O)[C@H]3O)c2)c(F)c1 [Example 81, 5-(2,6-difluoro-4-methoxyphenyl)-3-pyridinyl 5-thio-β-D-xylopyranoside]	200
COc1ccc(-c2nccc(C)c2O[C@@H]2SC[C@@H](O)[C@H](O)[C@H]2O)cc1 [Example 75, 2-(4-methoxyphenyl)-4-methyl-3-pyridinyl 5-thio-β-D-xylopyranoside]	101
COc1cc(F)ccc1-c1cncc(O[C@@H]2SC[C@@H](O)[C@H](O)[C@H]2O)c1 [Example 87, 5-(4-fluoro-2-methoxyphenyl)-3-pyridinyl 5-thio-β-D-xylopyranoside]	218 to 228
Cc1ccc(-c2cncc(O[C@@H]3SC[C@@H](O)[C@H](O)[C@H]3O)c2)c(Cl)c1 [Example 111, 5-(2-chloro-4-methylphenyl)-3-pyridinyl 5-thio-β-D-xylopyranoside]	207
O[C@@H]1[C@@H](O)[C@H](Oc2cncc(-c3c(F)cc(F)cc3F)c2)SC[C@H]1O [Example 144, 5-(2,4,6-trifluorophenyl)-3-pyridinyl 5-thio-β-D-xylopyranoside]	228
COc1ccc(-c2cc(O[C@@H]3SC[C@@H](O)[C@H](O)[C@H]3O)ccn2)cc1 [Example 77, 2-(4-methoxyphenyl)-4-pyridinyl 5-thio-β-D-xylopyranoside]	150 to 154
N#Cc1ccc(-c2cncc(O[C@@H]3SC[C@@H](O)[C@H](O)[C@H]3O)c2)cc1F [Example 91, 5-(4-cyano-3-fluorophenyl)-3-pyridinyl 5-thio-β-D-xylopyranoside]	214
N#Cc1cccc(-c2cncc(O[C@@H]3SC[C@@H](O)[C@H](O)[C@H]3O)c2)c1 [Example 55, 5-(3-cyanophenyl)-3-pyridinyl 5-thio-β-D-xylopyranoside]	172
O[C@@H]1[C@@H](O)[C@H](Oc2ccc(-c3ccc(OC(F)(F)F)cc3)nc2)SC[C@H]1O [Example 125, 6-[4-(trifluoromethoxy)phenyl]-3-pyridinyl 5-thio-β-D-xylopyranoside]	184 to 186
COc1c(F)cc(-c2cncc(O[C@@H]3SC[C@@H](O)[C@H](O)[C@H]3O)c2)cc1F [Example 146, 5-(3,5-difluoro-4-methoxyphenyl)-3-pyridinyl 5-thio-β-D-xylopyranoside]	203
O[C@@H]1[C@@H](O)[C@H](Oc2ccc(-c3ccc(F)cc3)nc2)SC[C@H]1O [Example 129, 6-(4-fluorophenyl)-3-pyridinyl 5-thio-β-D-xylopyranoside]	180 to 183
CS(=O)(=O)c1cncc(O[C@@H]2SC[C@@H](O)[C@H](O)[C@H]2O)c1 [Example 115, 5-methylsulfonyl-3-pyridinyl 5-thio-β-D-xylopyranoside]	183
O=S(=O)(c1ccc(F)cc1)c1cncc(O[C@@H]2SC[C@@H](O)[C@H](O)[C@H]2O)c1 [Example 142, 5-[(4-fluorophenyl)sulfonyl]-3-pyridinyl 5-thio-β-D-xylopyranoside]	93 to 96
Cc1cc(F)ccc1-c1cc(O[C@@H]2SC[C@@H](O)[C@H](O)[C@H]2O)ccn1 [Example 162, 2-(4-fluoro-2-methylphenyl)-4-pyridinyl 5-thio-β-D-xylopyranoside]	147
N#Cc1ccc(-c2ccncc2O[C@@H]2SC[C@@H](O)[C@H](O)[C@H]2O)cc1 [Example 28, 4-(4-cyanophenyl)-3-pyridinyl 5-thio-β-D-xylopyranoside]	238
Cc1ccc(-c2cncc(O[C@@H]3SC[C@@H](O)[C@H](O)[C@H]3O)c2)cc1 [Example 52, 5-(4-methylphenyl)-3-pyridinyl 5-thio-β-D-xylopyranoside]	228
O[C@@H]1[C@@H](O)[C@H](Oc2cccnc2-c2ccc(F)cc2)SC[C@H]1O [Example 73, 2-(4-fluorophenyl)-3-pyridinyl 5-thio-β-D-xylopyranoside]	110

SMILES	melting point [°C]
O[C@@H]1[C@@H](O)[C@H](Oc2cncc(-c3ccc(F)cc3F)c2)SC[C@H]1O [Example 85, 5-(2,4-difluorophenyl)-3-pyridinyl 5-thio-β-D-xylopyranoside]	221
N#Cc1ccc(-c2cncc(O[C@@H]3SC[C@@H](O)[C@H](O)[C@H]3O)c2)cc1Cl	202 to 204
COc1ccc(-c2cncc(O[C@@H]3SC[C@@H](O)[C@H](O)[C@H]3O)c2)cc1Cl [Example 65, 5-(3-chloro-4-methoxyphenyl)-3-pyridinyl 5-thio-β-D-xylopyranoside]	165
COc1ccc(-c2cncc(O[C@@H]3SC[C@@H](O)[C@H](O)[C@H]3O)c2)c(Cl)c1 [Example 113, 5-(2-chloro-4-methoxyphenyl)-3-pyridinyl 5-thio-β-D-xylopyranoside]	218
N#Cc1ccc(-c2cncc(O[C@@H]3SC[C@@H](O)[C@H](O)[C@H]3O)c2)cc1C#N [Example 156, 5-(3,4-dicyanophenyl)-3-pyridinyl 5-thio-β-D-xylopyranoside]	192
CC(=O)c1cccc(-c2ccc(O[C@@H]3SC[C@@H](O)[C@H](O)[C@H]3O)cn2)c1 [Example 124, 6-(3-acetylphenyl)-3-pyridinyl 5-thio-β-D-xylopyranoside]	159 to 163
CC(=O)O[C@@H]1[C@@H](OC(C)=O)[C@H](OC(C)=O)CS[C@H]1Oc1cncc(S(C)(=O)=O)c1 [Example 114, 5-methylsulfonyl-3-pyridinyl 2,3,4-tri-O-acetyl-5-thio-β-D-xylopyranoside]	193
COc1ccc(-c2ccc(O[C@@H]3SC[C@@H](O)[C@H](O)[C@H]3O)cn2)cc1 [Example 93, 6-(4-methoxyphenyl)-3-pyridinyl 5-thio-β-D-xylopyranoside]	164
CN(C)c1ccc(-c2cncc(O[C@@H]3SC[C@@H](O)[C@H](O)[C@H]3O)c2)cc1 [Example 50, 5-[4-(dimethylamino)phenyl]-3-pyridinyl 5-thio-β-D-xylopyranoside]	240
CC(=O)O[C@@H]1[C@@H](OC(C)=O)[C@H](OC(C)=O)CS[C@H]1Oc1cncc(C(C)=O)c1 [Example 118, 5-acetyl-3-pyridinyl 2,3,4-tri-O-acetyl-5-thio-β-D-xylopyranoside]	157
CC(=O)c1cccc(-c2ncccc2O[C@@H]2SC[C@@H](O)[C@H](O)[C@H]2O)c1 [Example 128, 2-(3-acetylphenyl)-3-pyridinyl 5-thio-β-D-xylopyranoside]	128 to 133
O[C@@H]1[C@@H](O)[C@H](Oc2cccnc2-c2ccc(OC(F)(F)F)cc2)SC[C@H]1O [Example 127, 2-[4-(trifluoromethoxy)phenyl]-3-pyridinyl 5-thio-β-D-xylopyranoside]	114 to 119
Cc1ccc(-c2cncc(O[C@@H]3SC[C@@H](O)[C@H](O)[C@H]3O)c2)cc1F [Example 107, 5-(3-fluoro-4-methylphenyl)-3-pyridinyl 5-thio-β-D-xylopyranoside]	213
O[C@@H]1[C@@H](O)[C@H](Oc2cnccc2-c2ccc(F)cc2)SC[C@H]1O [Example 57, 4-(4-fluorophenyl)-3-pyridinyl 5-thio-β-D-xylopyranoside]	219
Cc1ccc(-c2cncc(O[C@@H]3SC[C@@H](O)[C@H](O)[C@H]3O)c2)cc1C [Example 109, 5-(3,4-dimethylphenyl)-3-pyridinyl 5-thio-β-D-xylopyranoside]	184
COc1cccc(-c2cncc(O[C@@H]3SC[C@@H](O)[C@H](O)[C@H]3O)c2)c1 [Example 67, 5-(3-methoxyphenyl)-3-pyridinyl 5-thio-β-D-xylopyranoside]	200
Cc1cc(-c2cncc(O[C@@H]3SC[C@@H](O)[C@H](O)[C@H]3O)c2)ccc1C#N [Example 150, 5-(4-cyano-3-methylphenyl)-3-pyridinyl 5-thio-β-D-xylopyranoside]	198 to 200
COc1ccc(-c2cncc(O[C@@H]3SC[C@@H](O)[C@H](O)[C@H]3O)c2)c(C)c1 [Example 105, 5-(4-methoxy-2-methylphenyl)-3-pyridinyl 5-thio-β-D-xylopyranoside]	231
O[C@@H]1[C@@H](O)[C@H](Oc2cncc(-c3ccc(N4CCCCC4)cc3)c2)SC[C@H]1O [Example 48, 5-[4-(1-piperidinyl)phenyl]-3-pyridinyl 5-thio-β-D-xylopyranoside]	196
OCc1ccc(-c2ccc(O[C@@H]3SC[C@@H](O)[C@H](O)[C@H]3O)cn2)cc1 [Example 95, 6-[4-(hydroxymethyl)phenyl]-3-pyridinyl 5-thio-β-D-xylopyranoside]	215
O=C(NCc1ccccc1)c1ccc(O[C@@H]2SC[C@@H](O)[C@H](O)[C@H]2O)cn1 [Example 117, 6-{[(phenylmethyl)amino]carbonyl}-3-pyridinyl 5-thio-β-D-xylopyranoside]	89 to 91
